Here are results for 22 molecules from patent publication US9580398B2, “Compounds, compositions, and methods for modulating ferroptosis and treating excitotoxic disorders” (The Trustees of Columbia University in the City of New York, priority 2012, dated 2017).

What is called EC50 is the midpoint of the concentration-response curve. Lower therefore signals a more potent agent.

Like-named read-outs stand apart in the source and are kept apart here. Where a SMILES comes first, the peptide text is derived from it. [ ]: non-standard residue; d: D form. The star is where a group is joined. Nle = CCCC[C@H](N)C(=O)O; Cbz = O=C(OCc1ccccc1)*; CH2F = FC* Some results are limits rather than exact numbers.

Test [1] has as its system HT-1080 cells. Put plainly: Erastin-induced death in HT-1080 cells with co-treated inhibitors (viability, microscopy). Type of test: cell-based, human. To be noted: for protection from death on late addition / effect of co-treatment on erastin-induced death: HT-1080 cells; for protection from death on late addition: added up to 6 hours after erastin; for effect on erastin-induced ferroptosis (glutamine metabolism modulators): HT-1080 and BJeLR cells, media with glucose and Gln, AOA 2 mM. The method, then:
(§1) Cell viability was typically assessed in 384-well format by Alamar Blue (Invitrogen) fluorescence (ex/em 530/590) measured on a Victor3 platereader (Perkin Elmer, Waltham, Mass.). In some experiments, Trypan Blue dye exclusion counting was performed using an automated cell counter (ViCell, Beckman-Coulter Inc., Brea, Calif.). Cell viability in test conditions is reported as a percentage relative to the negative control treatment.
Phase contrast images were acquired using an AMG EVOS FL (Advanced Microscopy Group) microscope equipped with a 10× phase-contrast objective. Three independent fields were acquired for each experimental condition. Representative samples from one field of view are shown.

Test [2] relates to HT-1080, BJeLR and Calu-1 cells. Put plainly: Modulatory profiling of small molecule cell death inhibitors against erastin. In kind it is cell-based, human. To be noted: erastin 10 μM, 24 hours, 10-point, 4-fold dilution series. The method, then:
The day before the experiment, cells were seeded in black, 384-well clear bottom plates (Corning) at a density of 1,000 cells/well using a Beckman Biomek FX Workstation. All compounds (except 3-methyladenine and chloroquine, which were diluted in water) were diluted in DMSO at 250 times the final highest test concentration, and aliquoted across a 384-well plate (Greiner, Monroe, N.C.). A ten-point, 4-fold dilution series of each inhibitor in DMSO was made using a multichannel pipette. Replicates of this mother plate were stored at −20° C. […] Medium was removed from cells and replaced with 36 μL medium containing DMSO (0.1%) or erastin (10 μM final concentration). Using the Biomek FX, 4 μL were then transferred from each inhibitor daughter plate into the DMSO-containing or erastin-containing assay plates. For 3-methyladenine and chloroquine, inhibitors were prepared fresh in media at 10-fold the final concentration in the presence of DMSO or 10 μM erastin. These solutions were manually pipetted onto cells in 384-well format. Assay plates were incubated at 37° C. for 24 hours. Viability was assessed using Alamar Blue.
The modulatory effect (Me) for drug-drug interactions was computed as follows. First, plate-based background correction was performed using Alamar Blue values from empty (cell-free) wells included on each plate. Next, within each experiment, 100% viability is determined as the average Alamar Blue score for cells treated with modulator=DMSO and lethal=DMSO, and all Alamar Blue values were scaled from 0 to 1 with the DMSO×DMSO condition=1. The individual effects of each modulator and lethal (e.g. in the presence of DMSO) at all tested doses were then ascertained. […] Next, BExp was compared to the actual observed viability. […] By default, Me in DMSO-treated cells is equal to 0. […] Me values for each inhibitor-lethal drug combination were hierarchically clustered and plotted as a heatmap using the heatmaps.2 function of the gplots library in R.

Test [3] has as its system erastin (10 μM)-treated HT-1080 cells. Put plainly: Inhibition of death in erastin (10 μM)-treated HT-1080 cells, viability by Alamar Blue. Type of test: cell-based, human. As to conditions: for EC50: Homo sapiens; for ability to prevent erastin-induced death: erastin 10 μM, HT-1080 cells. Here is the method:
as §1
Flow cytometry data was analyzed using FloJo (9.3.2, Tree Star, Inc., Ashland, Oreg.). Chemical structures were drawn using ChemDraw Ultra (Cambridgesoft, Cambridge, Mass.). Computational determination of log P (Slog P function) was performed using MOE 2010.10 (Chemical Computing Group, Montreal, […].). Viability data was analyzed using Excel (Microsoft Corp., […].). Summary data and heatmaps were generated using R. Dose-response curves were computed by 4-parameter logistic regression in Prism 5.0c (GraphPad Software). Images were manipulated using Photoshop CS4 and Illustrator CS4 (Adobe, San Jose, Calif.).
The ability of various compounds disclosed herein to inhibit death in erastin (10 μM)-treated HT-1080 cells were tested. Cell viability was assessed by Alamar Blue. EC50 values (nM) were computed from dose response curves.

The nature of test [4]: 2,2-diphenyl-1-picrylhydrazyl (DPPH) assay, cell-free antioxidant potential. As to conditions: test compound 0.05 mM, absorbance at 517 nm. The method, then: The stable radical DPPH (Blois, 1958) was dissolved in methanol to a final concentration of 0.05 mM. 1 mL of DPPH solution was added to 2 μL of each test compound dissolved in DMSO. The final concentration of each test compound was 0.05 mM. Samples were inverted several times and allowed to incubate at room temperature for 10 minutes. Samples were then aliquoted to white 96-well solid-bottom dishes (Corning) and absorbance at 517 nm was recorded using a TECAN M200 plate reader. All values were normalized to background (methanol only). The experiment was repeated twice. Results within each trial normalized to DMSO (=1.0), then averaged across trials.

The subject of test [5] is ROS production in HT-1080 cells. The test can be described thus: Analysis of reactive oxygen species production by flow cytometry (H2DCFDA, C11-BODIPY, MitoSOX). Type of test: cell-based, human. (In general: A flow cytometer gives signals particle by particle.)
Experimental: The day before the experiment, 200,000 cells/well were seeded in 6-well dishes (Corning Inc., Corning, N.Y.). […] Data was collected from the FL1 (H2DCFDA, C11-BODIPY) or FL2 channel (MitoSOX). A minimum of 10,000 cells were analyzed per condition.
The subject of test [6] is rat organotypic hippocampal slice culture (OHSC). The test can be described thus: Glutamate-induced excitotoxic cell death in organotypic hippocampal slice cultures (PI uptake). Type of test: cell-based. As to conditions: 5 mM L-glutamate 3 hours; 24 hours after; DG, CA1, CA3; Fer-1 2 μM, CPX 5 μM, MK-801 10 μM. Here is the method:
OHSCs were cultured as previously described (Morrison et al., 2002) with approval from Columbia University's Institutional Animal Care and Use Committee (IACUC). Briefly, Sprague Dawley rat pups (P8-P10) were rapidly decapitated, and the hippocampus placed in ice-cold Gey's balanced salt solution (Sigma). 400 μm thick sections were cut using a Mcllwain tissue chopper and immediately plated on Millicell cell culture inserts (Millipore, Billerica, Mass.) in Neurobasal (Invitrogen) media supplemented with B27 (1×, Invitrogen), GlutaMAX (1 mM, Invitrogen), and D-glucose (4.5 mg/mL, Sigma) at 37° C. and 5% CO2. After 2 days in vitro (DIV), the media was changed to medium containing serum comprised of 50% DMEM (Sigma), 25% heat-inactivated horse serum (Sigma), 25% Hank's balanced salt solution (Sigma), GlutaMAX (1 mM, Invitrogen), and D-glucose (4.5 mg/mL, Sigma). Medium was changed every 2-3 days.
After 10-14 DIV, OBSCs were exposed to an excitotoxic injury consisting of a 3 hour exposure to 5 mM L-glutamate in SFM (Morrison et al., 2002). Only healthy OHSCs defined as those with less than 5% cell death in all regions of the hippocampus (DG, CA3, CA1) pre-injury were used for experiments. After the 3 hour exposure, the cultures were placed in fresh serum free media (SFM) containing 75% DMEM, 25% Hank's balanced salt solution, GlutaMAX (1 mM), D-glucose (4.5 mg/mL) until cell death was quantified at 24 hours. If drugs were added, they were added at the same time as glutamate.
Quantification of cell death has been described previously (Cater et al., 2007; Morrison et al., 2002). Brightfield images of the hippocampal cultures were taken before injury for identification of regions of interest (ROI) including the dentate gyrus (DG), CA3 and CA1. Propidium iodide (PI, Invitrogen) was used as a fluorescent signal for cell death, and images were taken before the induction of injury and 24 hours following injury. […] Percentage cell death was expressed as the number of pixels in the ROI above a threshold in the PI fluorescent image divided by the total number of pixels in the ROI.

The mark [7] stands for this setting: HT-1080, inhibition of death in erastin (10 μM)-treated HT-1080 cells, Alamar Blue, from dose response curves.

As to `c1ccc(-c2ccccn2)nc1` [2,2-bipyridyl], the “protection from death on late addition” value in test [1] was “substantial protection from death”. Consider `CCCC[C@@H](C=O)NC(=O)[C@H](CC(C)C)NC(=O)[C@H](CC(C)C)NC(C)=O` [ALLN] (Ac-Leu-Leu-[Nle]-aldehyde), for which the “modulation of erastin-induced death” value in test [2] is given as “not consistently modulated”.

`CCOC(=O)c1ccc(NC2CCCCC2)c([N+](=O)[O-])c1` [SRS8-24, ethyl 4-(cyclohexylamino)-3-nitrobenzoate] gave an EC50 in test [3] (setting [7]) of more than 10000 nM. The “ability to prevent erastin-induced death” value in test [3] is reported as “destroyed the antioxidant capability of Fer-1, as well as its ability to prevent erastin (10 μM)-induced death”. Besides, in test [4], the “intrinsic antioxidant capability (DPPH)” value is “destroyed the antioxidant capability”. As to `N#CC(=C(/N)Sc1ccccc1N)/C(C#N)=C(\N)Sc1ccccc1N` [U0126], the “effect on erastin-induced ROS accumulation” value in test [5] is on record as “prevented the accumulation of H2DCFDA-sensitive ROS”. The “modulation of erastin-induced death” value in test [2] is reported as “rescued from erastin-induced death”. Besides, the “protection from death on late addition” value in test [1] is listed as “substantial protection from death”. As to `Cn1cnc(N)c2ncnc1-2` [3-methyladenine], the “modulation of erastin-induced death” value in test [2] was “not consistently modulated”.

In the case of `O=C(O)CN(CCOCCOCCN(CC(=O)O)CC(=O)O)CC(=O)O` [EGTA], the “effect of co-treatment on erastin-induced death” value (shortened to “effect of co-treatment”) in test [1] is on record as “had no effect on erastin-induced death”. Take `Cc1c(C)c2c(c(C)c1O)CCC(C)(C(=O)O)O2` (stereo not drawn) [trolox]: the “effect on erastin-induced ROS accumulation” value in test [5] (erastin 10 μM, HT-1080 cells, H2DCFDA, C11-BODIPY) is reported as “prevented the accumulation of H2DCFDA-sensitive ROS”. In test [2], the “modulation of erastin-induced death” value is “rescued from erastin-induced death”. Besides, the “protection from death on late addition” value in test [1] is on record as “substantial protection from death”. Consider `Cc1ccc(N(CC(=O)O)CC(=O)O)c(OCCOc2cc3cc(-c4ncc(C(=O)O)o4)oc3cc2N(CC(=O)O)CC(=O)O)c1` [Fura-2], for which, in test [1], the “effect of co-treatment” value is “had no effect on erastin-induced death”. On to `CCN(CC)CCCC(C)Nc1ccnc2cc(Cl)ccc12` (stereo not drawn) [chloroquine], for which, in test [2], the “modulation of erastin-induced death” value was “not consistently modulated”.

For the molecule `CCOC(=O)[C@H]1O[C@@H]1C(=O)N[C@@H](CC(C)C)C(=O)NCCC(C)C` [E64d], the “modulation of erastin-induced death” value in test [2] is given as “not consistently modulated”. Consider `COC(=O)CCC(=O)C(=O)OC` [DMK, dimethyl alphaketoglutarate], for which, in test [1], the “effect on erastin-induced ferroptosis (glutamine metabolism modulators)” value (from here on “effect on erastin-induced ferroptosis”) is given as “lethality of erastin was restored”. Consider `C[C@]12N[C@H](Cc3ccccc31)c1ccccc12` [MK-801], for which the “glutamate-induced cell death (PI uptake)” value in test [6] is “attenuated significantly and to an almost identical extent”. Turning to `CO/C1=C\C(C)=C\[C@@H](C)[C@@H](O)[C@@H](C)C/C(C)=C/C=C/[C@H](OC)[C@@H]([C@@H](C)[C@@H](O)[C@H](C)[C@@]2(O)C[C@@H](O)[C@H](C)[C@@H](C(C)C)O2)OC1=O` [bafilomycin A1], the “modulation of erastin-induced death” value in test [2] is given as “not consistently modulated”. For the molecule `Cc1cc(C2CCCCC2)n(O)c(=O)c1` [CPX, ciclopirox olamine], in test [6], the “glutamate-induced cell death (PI uptake)” value was “attenuated significantly and to an almost identical extent”. On to `COC(=O)C[C@H](NC(=O)[C@H](C)NC(=O)[C@@H](NC(=O)OCc1ccccc1)C(C)C)C(=O)CF` [z-VAD-fmk] (Cbz-Val-Ala-Asp(OMe)-CH2F), for which, in test [2], the “modulation of erastin-induced death” value is reported as “not consistently modulated”. As to `CCOC(=O)c1ccc(NC2CC2)c(N)c1` [SRS8-72, ethyl 3-amino-4-(cyclopropylamino)benzoate], in test [3] (setting [7]), the EC50 was 880 nM. Further, the “ability to prevent erastin-induced death” value in test [3] was “an order of magnitude less potent than Fer-1”. Also, the “intrinsic antioxidant capability (DPPH)” value in test [4] is reported as “retained equivalent intrinsic antioxidant capability”. Turning to `O=C(O)C(Cl)Cl` [DCA, dichloroacetic acid], the “effect on erastin-induced ferroptosis” value in test [1] is given as “had no effect”. For the molecule `CC(=O)OCOC(=O)CN(CC(=O)OCOC(C)=O)c1ccccc1OCCOc1ccccc1N(CC(=O)OCOC(C)=O)CC(=O)OCOC(C)=O` [BAPTA-AM], in test [1], the “effect of co-treatment” value was “had no effect on erastin-induced death”.

For `C=C(C)[C@H]1Cc2c(ccc3c2O[C@@H]2COc4cc(OC)c(OC)cc4[C@@H]2C3=O)O1` [rotenone], in test [5] (HT-1080 cells, 6 hours, erastin 10 μM, rotenone 250 nM), the “MitoSOX-sensitive mitochondrial ROS production” value is given as “enhanced MitoSOX-sensitive ROS production”. Turning to `NOCC(=O)O` [AOA, aminooxyacetic acid], the “effect on erastin-induced ferroptosis” value in test [1] is on record as “rescued”. As to `CN1C(=O)C(Cc2c[nH]c3ccccc23)NC1=S` (stereo not drawn) [necrostatin-1], the “modulation of erastin-induced death” value in test [2] is recorded as “not consistently modulated”. Turning to `NCCOCCOC(=O)c1ccc(NC2CCCCC2)c(N)c1` [SRS8-43, 2-(2-aminoethoxy)ethyl 3-amino-4-(cyclohexylamino)benzoate], the EC50 in test [3] (HT-1080) amounted to 420 nM.
